Test results published in ChEMBL document CHEMBL1128215, “Introduction of a conformational switching element on a pyrrolidine ring. Synthesis and evaluation of (R*,R*)-(+/-)-methyl 3-acetyl-4-[3- (cyclopentyloxy)-4-methoxyphenyl]-3-methyl-1-pyrrolidinecarboxylate, a potent and selective inhibitor of cAMP-specific phosphodiesterase” (J Med Chem, 1995).

What was measured:
Phosphodiesterase 4 = Phosphodiesterase 4 (Homo sapiens, UniProt P27815+Q08499+Q07343+Q08493); assay: Inhibition of cAMP hydrolysis by human Phosphodiesterase 4; format: protein assay
Phosphodiesterase 3 = Phosphodiesterase 3 (Homo sapiens, UniProt Q14432+Q13370); assay: Inhibition of Phosphodiesterase 3 from human pulmonary artery; format: tissue-based
Phosphodiesterase 6 = assay: Inhibition of Phosphodiesterase 6 from bovine retina; format: protein assay, Bos taurus
[1] = biological target: T1, cGMP-dependent 3',5'-cyclic phosphodiesterase (Bos taurus, UniProt P14099); assay: Inhibition of bovine Phosphodiesterase 2
T1 sequence (P14099 whole entry): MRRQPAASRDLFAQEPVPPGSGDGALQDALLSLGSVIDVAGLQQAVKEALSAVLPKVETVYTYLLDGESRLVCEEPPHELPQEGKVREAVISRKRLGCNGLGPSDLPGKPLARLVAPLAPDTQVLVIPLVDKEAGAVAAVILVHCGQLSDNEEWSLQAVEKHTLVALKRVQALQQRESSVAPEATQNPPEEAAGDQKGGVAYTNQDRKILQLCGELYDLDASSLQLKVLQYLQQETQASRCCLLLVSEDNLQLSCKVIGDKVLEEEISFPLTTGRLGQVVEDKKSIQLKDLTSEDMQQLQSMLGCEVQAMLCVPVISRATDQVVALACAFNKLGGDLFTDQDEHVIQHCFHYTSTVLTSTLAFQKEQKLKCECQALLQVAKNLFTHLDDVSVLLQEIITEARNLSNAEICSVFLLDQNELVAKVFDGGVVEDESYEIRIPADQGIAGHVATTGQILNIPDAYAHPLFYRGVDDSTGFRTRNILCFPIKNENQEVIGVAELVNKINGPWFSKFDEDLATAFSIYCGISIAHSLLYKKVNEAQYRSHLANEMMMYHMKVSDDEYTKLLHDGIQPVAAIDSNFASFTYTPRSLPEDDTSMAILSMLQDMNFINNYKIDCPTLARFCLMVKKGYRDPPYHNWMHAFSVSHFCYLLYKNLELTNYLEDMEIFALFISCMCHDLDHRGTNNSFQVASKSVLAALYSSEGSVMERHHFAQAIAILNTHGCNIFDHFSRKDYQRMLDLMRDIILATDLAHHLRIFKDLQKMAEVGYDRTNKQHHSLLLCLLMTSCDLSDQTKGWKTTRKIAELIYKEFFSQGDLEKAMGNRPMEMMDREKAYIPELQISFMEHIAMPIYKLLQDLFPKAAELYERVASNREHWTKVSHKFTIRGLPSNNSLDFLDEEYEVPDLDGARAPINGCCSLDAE

[2] = biological target: cGMP-specific 3',5'-cyclic phosphodiesterase (Homo sapiens, UniProt O76074); assay: Inhibition of Phosphodiesterase 5 isolated from human trachea; format: tissue-based
[3] = biological target: High affinity 3',5'-cyclic-AMP phosphodiesterase 7A (Homo sapiens, UniProt Q13946); assay: Inhibition of human Phosphodiesterase 7
Chain of High affinity 3',5'-cyclic-AMP phosphodiesterase 7A (Q13946 whole entry): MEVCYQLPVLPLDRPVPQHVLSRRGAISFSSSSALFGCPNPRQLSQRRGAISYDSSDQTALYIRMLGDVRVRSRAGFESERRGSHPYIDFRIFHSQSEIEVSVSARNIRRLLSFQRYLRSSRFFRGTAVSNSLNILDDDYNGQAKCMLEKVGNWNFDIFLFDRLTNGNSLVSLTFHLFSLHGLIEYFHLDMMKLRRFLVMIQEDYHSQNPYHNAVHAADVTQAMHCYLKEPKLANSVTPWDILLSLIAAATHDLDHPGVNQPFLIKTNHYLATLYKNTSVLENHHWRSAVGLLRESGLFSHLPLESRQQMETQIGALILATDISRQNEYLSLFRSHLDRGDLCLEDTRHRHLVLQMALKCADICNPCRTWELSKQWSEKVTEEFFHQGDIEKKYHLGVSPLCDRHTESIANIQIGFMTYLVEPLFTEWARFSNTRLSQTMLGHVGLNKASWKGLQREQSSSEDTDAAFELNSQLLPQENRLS

Phosphodiesterase 1 = Phosphodiesterase 1 (Bos taurus, UniProt Q01061+P14100); assay: Inhibition of Phosphodiesterase 1 from bovine aorta; format: protein assay

Row | Structure (SMILES) | Ki (Phosphodiesterase 4) [nM] | further results
1 | COC(=O)[C@@H]1CN(C(=O)OC)C[C@H]1c1ccc(OC)c(OC2CCCC2)c1 | 159 | 
2 | CCOC(=O)[C@]1(C)CN(C(=O)OC)C[C@H]1c1ccc(OC)c(OC2CCCC2)c1 | 86 | 
3 | COC(=O)N1C[C@@H](c2ccc(OC)c(OC3CCCC3)c2)[C@](C)(C(=O)OC)C1 | 3 | 
4 | COC(=O)N1C[C@H](C)[C@H](c2ccc(OC)c(OC3CCCC3)c2)C1 | 100 | 
5 | COC(=O)N1C[C@@H](C(C)=O)[C@H](c2ccc(OC)c(OC3CCCC3)c2)C1 | 33 | 
6 | CCOC(=O)[C@@H]1CN(C(=O)OC)C[C@H]1c1ccc(OC)c(OC2CCCC2)c1 | 550 | 
7 | COC(=O)N1C[C@@H](c2ccc(OC)c(OC3CCCC3)c2)[C@](C)(C(C)=O)C1 | 1 | Ki (Phosphodiesterase 3): > 100000 nM; Ki (Phosphodiesterase 6): > 100000 nM; Ki [1]: > 100000 nM; Ki [2]: > 100000 nM; Ki [3]: 7900 nM; Ki (Phosphodiesterase 1): > 100000 nM
8 | COC(=O)N1C[C@@H](CO)[C@H](c2ccc(OC)c(OC3CCCC3)c2)C1 | 224 | 
9 | COC(=O)N1CC[C@H](c2ccc(OC)c(OC3CCCC3)c2)C1 | 110 | 
10 | COC(=O)N1C[C@@H](c2ccc(OC)c(OC3CCCC3)c2)[C@](C)(CO)C1 | 37 | 
11 | CC[C@@]1(C(C)=O)CN(C(=O)OC)C[C@H]1c1ccc(OC)c(OC2CCCC2)c1 | 10 | 
